Results taken from ChEMBL document CHEMBL4680270, “Synthesis and biological evaluation of novel pyrazoline derivatives containing indole skeleton as anti-cancer agents targeting topoisomerase II” (Eur J Med Chem, 2020).
Activity calls are given as the source filed them. No cut-off for these calls is given here.

How the values were obtained:
MCF7 = assay: Antiproliferative activity against human MCF7 cells assessed as reduction in cell growth incubated for 48 hrs by MTT assay; assay type: functional, cell-based; details: MCF7, 48 h
HeLa = assay: Antiproliferative activity against human HeLa cells assessed as reduction in cell growth incubated for 48 hrs by MTT assay; assay type: functional, cell-based
MGC-803 [1] = assay: Antiproliferative activity against human MGC-803 cells assessed as reduction in cell growth incubated for 48 hrs by MTT assay; assay type: functional, cell-based; details: MGC-803, 48 h
BEL-7404 tumor cell line = assay: Antiproliferative activity against human Bel-7404 tumor cell line assessed as reduction in cell growth incubated for 48 hrs by MTT assay; assay type: functional, cell-based; details: BEL-7404, 48 h
[2] = Cytotoxicity against […] tumor cell line assessed as reduction in cell viability incubated for 48 hrs by MTT assay; details: L929, 48 h
[3] = molecular target: T1, DNA topoisomerase 1 (Homo sapiens) (UniProt P11387); assay: Inhibition of human topoisomerase 1 assessed as decrease in relaxation of supercoiled pBR322 plasmid DNA at 100 uM using pBR322 plasmid DNA as substrate incubated for 30 mins by agarose gel electrophoresis
T1 sequence (whole entry): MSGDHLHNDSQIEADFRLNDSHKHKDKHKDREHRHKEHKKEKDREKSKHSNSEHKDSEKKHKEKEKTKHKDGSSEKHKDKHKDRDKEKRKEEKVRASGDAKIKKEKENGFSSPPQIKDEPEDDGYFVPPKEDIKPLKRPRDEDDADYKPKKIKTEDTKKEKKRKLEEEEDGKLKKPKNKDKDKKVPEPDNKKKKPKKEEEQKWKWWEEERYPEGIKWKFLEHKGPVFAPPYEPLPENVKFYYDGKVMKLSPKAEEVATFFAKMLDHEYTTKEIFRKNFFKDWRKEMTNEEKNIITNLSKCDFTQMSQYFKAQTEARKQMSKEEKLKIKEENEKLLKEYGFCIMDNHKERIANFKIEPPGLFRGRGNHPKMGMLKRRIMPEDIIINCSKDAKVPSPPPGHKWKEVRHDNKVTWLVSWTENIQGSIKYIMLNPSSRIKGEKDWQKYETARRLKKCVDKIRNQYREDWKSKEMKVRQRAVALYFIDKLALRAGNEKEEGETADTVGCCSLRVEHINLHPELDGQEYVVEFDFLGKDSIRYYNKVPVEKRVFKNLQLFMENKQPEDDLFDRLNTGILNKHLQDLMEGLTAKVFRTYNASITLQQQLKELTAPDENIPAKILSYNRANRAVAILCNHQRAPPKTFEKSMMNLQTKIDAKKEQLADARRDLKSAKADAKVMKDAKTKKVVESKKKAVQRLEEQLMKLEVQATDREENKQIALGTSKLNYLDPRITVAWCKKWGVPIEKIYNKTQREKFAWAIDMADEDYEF

MGC-803 [4] = assay: Inhibition of topoisomerase 2 purified from human MGC-803 cells assessed as decrease in relaxation of supercoiled pBR322 plasmid DNA at 100 uM using pBR322 plasmid DNA as substrate incubated for 30 mins by agarose gel electrophoresis; assay type: cell-free
MGC-803 [5] = assay: Inhibition of topoisomerase 2 purified from human MGC-803 cells assessed as decrease in relaxation of supercoiled pBR322 plasmid DNA at 20 uM using pBR322 plasmid DNA as substrate incubated for 30 mins by agarose gel electrophoresis; assay type: cell-free
MGC-803 [6] = assay: Induction of apoptosis in human MGC-803 cells assessed as viable cells at 10 uM incubated for 48 hrs by annexin V-FITC and PI staining based flow cytometry analysis (reference value: 94.47 %); assay type: functional; details: read-out: Activity
MGC-803 [7] = assay: Induction of apoptosis in human MGC-803 cells assessed as early apoptotic cells at 10 uM incubated for 48 hrs by annexin V-FITC and PI staining based flow cytometry analysis (reference value: 2.54 %); assay type: functional
MGC-803 [8] = assay: Induction of apoptosis in human MGC-803 cells assessed as late apoptotic cells at 10 uM incubated for 48 hrs by annexin V-FITC and PI staining based flow cytometry analysis (reference value: 2.96 %); assay type: functional
MGC-803 [9] = assay: Induction of apoptosis in human MGC-803 cells assessed as necrotic cells at 10 uM incubated for 48 hrs by annexin V-FITC and PI staining based flow cytometry analysis (reference value: 0.03 %); assay type: functional
MGC-803 [10] = assay: Induction of apoptosis in human MGC-803 cells assessed as viable cells at 20 uM incubated for 48 hrs by annexin V-FITC and PI staining based flow cytometry analysis (reference value: 94.47 %); assay type: functional; details: read-out: Activity
MGC-803 [11] = assay: Induction of apoptosis in human MGC-803 cells assessed as early apoptotic cells at 20 uM incubated for 48 hrs by annexin V-FITC and PI staining based flow cytometry analysis (reference value: 2.54 %); assay type: functional
MGC-803 [12] = assay: Induction of apoptosis in human MGC-803 cells assessed as late apoptotic cells at 20 uM incubated for 48 hrs by annexin V-FITC and PI staining based flow cytometry analysis (reference value: 2.96 %); assay type: functional
MGC-803 [13] = assay: Induction of apoptosis in human MGC-803 cells assessed as necrotic cells at 20 uM incubated for 48 hrs by annexin V-FITC and PI staining based flow cytometry analysis (reference value: 0.03 %); assay type: functional
MGC-803 [14] = assay: Induction of cell cycle arrest in human MGC-803 cells assessed as G0/G1 phase at 10 uM incubated for 48 hrs by PI staining based flow cytometry analysis (reference value: 47.6 %); assay type: functional
MGC-803 [15] = assay: Induction of cell cycle arrest in human MGC-803 cells assessed as S phase at 10 uM incubated for 48 hrs by PI staining based flow cytometry analysis (reference value: 43.6 %); assay type: functional
MGC-803 [16] = assay: Induction of cell cycle arrest in human MGC-803 cells assessed as G2/M phase at 10 uM incubated for 48 hrs by PI staining based flow cytometry analysis (reference value: 8.8 %); assay type: functional
[17] = Drug uptake in human MGC-803 cells at 10 uM incubated for 8 hrs by laser scanning confocal microscope; assay type: ADME, cell-based; details: mgc-803, 8 h
[18] = molecular target: DNA topoisomerase 2-alpha (Homo sapiens) (UniProt P11388); assay: Poison activity at human topoisomerase 2alpha assessed as DNA cleavage by measuring linear DNA formation at 100 to 300 uM using supercoiled pBR322 DNA as substrate incubated for 30 mins by agarose gel electrophoresis method; details: dose 100-300 µM
Chain of DNA topoisomerase 2-alpha (Homo sapiens) (P11388 whole entry): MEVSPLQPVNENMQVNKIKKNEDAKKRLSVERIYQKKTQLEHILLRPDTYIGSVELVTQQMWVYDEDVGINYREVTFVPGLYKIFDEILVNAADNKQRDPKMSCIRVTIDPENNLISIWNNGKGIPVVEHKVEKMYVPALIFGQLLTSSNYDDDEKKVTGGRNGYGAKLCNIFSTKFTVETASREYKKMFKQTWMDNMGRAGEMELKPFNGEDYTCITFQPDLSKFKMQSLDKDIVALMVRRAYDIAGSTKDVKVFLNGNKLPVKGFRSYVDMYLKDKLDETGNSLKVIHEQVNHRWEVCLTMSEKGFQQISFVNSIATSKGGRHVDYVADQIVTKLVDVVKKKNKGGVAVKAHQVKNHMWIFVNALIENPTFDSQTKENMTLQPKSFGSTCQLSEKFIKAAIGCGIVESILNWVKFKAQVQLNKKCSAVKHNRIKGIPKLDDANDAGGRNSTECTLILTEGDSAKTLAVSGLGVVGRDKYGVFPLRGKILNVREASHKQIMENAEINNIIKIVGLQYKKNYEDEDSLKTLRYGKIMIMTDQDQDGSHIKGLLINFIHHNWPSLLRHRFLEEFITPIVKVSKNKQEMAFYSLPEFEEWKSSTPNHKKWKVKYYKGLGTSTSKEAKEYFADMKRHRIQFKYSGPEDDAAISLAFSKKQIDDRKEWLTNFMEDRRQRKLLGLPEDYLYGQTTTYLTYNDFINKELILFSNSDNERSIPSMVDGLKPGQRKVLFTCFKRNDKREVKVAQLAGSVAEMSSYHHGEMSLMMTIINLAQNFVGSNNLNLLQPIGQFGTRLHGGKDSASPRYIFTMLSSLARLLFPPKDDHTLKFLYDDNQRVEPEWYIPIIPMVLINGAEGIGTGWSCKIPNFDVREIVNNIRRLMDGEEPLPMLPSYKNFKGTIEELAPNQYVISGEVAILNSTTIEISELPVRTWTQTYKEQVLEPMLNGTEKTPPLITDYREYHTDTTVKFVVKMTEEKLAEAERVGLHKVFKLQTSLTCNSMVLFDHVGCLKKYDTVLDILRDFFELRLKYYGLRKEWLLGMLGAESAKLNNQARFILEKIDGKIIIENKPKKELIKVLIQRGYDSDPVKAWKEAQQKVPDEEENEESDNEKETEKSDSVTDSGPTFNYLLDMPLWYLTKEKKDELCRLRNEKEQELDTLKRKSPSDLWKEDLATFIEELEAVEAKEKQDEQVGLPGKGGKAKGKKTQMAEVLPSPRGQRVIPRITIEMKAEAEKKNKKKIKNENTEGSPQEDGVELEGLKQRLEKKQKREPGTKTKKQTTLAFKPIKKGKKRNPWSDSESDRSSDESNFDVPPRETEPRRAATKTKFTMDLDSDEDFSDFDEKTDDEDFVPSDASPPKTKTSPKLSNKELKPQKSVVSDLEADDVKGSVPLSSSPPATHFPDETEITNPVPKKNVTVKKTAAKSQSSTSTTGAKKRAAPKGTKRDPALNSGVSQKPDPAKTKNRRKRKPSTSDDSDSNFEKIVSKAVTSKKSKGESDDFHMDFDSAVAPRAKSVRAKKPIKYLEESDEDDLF

Homo sapiens = species on record: Homo sapiens; assay: Inhibition of human topoisomerase 2 assessed as EtBr intercalation into plasmid DNA by converting relaxed DNA into supercoiled DNA at 100 to 300 uM incubated for 30 mins by agarose gel electrophoresis method; details: dose 100-300 µM

Compound	IC50 (MCF7) [µM]	IC50 (HeLa) [µM]	IC50 (MGC-803 [1]) [µM]	IC50 (BEL-7404 tumor cell line) [µM]	IC50 [2] [µM]	inhibition [3]	inhibition (MGC-803 [4])	inhibition (MGC-803 [5])	also measured
Cc1ccc2c(c1)C1=NN(c3ccccc3)C(c3c[nH]c4ccccc34)C1CS2 (stereo unspecified)	68	36.4	21.9	> 120	158	inactive	Active	Active	
Cc1ccc(C)c2c1SCC1C2=NN(c2ccccc2)C1c1c[nH]c2ccccc12 (stereo unspecified)	37.7	39.7	35.6	37.5	183	inactive	Active	Active	
COc1cc([C@@H]2c3cc4c(cc3[C@@H](O[C@@H]3O[C@@H]5CO[C@@H](C)O[C@H]5[C@H](O)[C@H]3O)[C@H]3COC(=O)[C@H]23)OCO4)cc(OC)c1O [ETOPOSIDE]	1.45	5.35	11.2	7.76	80.4				
Fc1cccc2c1SCC1C2=NN(c2ccccc2)C1c1c[nH]c2ccccc12 (stereo unspecified)	35.7	31.6	31.1	36.2	158	inactive	Active	Active	
Cc1cc(C)c2c(c1)C1=NN(c3ccccc3)C(c3c[nH]c4ccccc34)C1CS2 (stereo unspecified)	27	29.2	26.5	23.7	134	inactive			
Cc1cc2c(cc1F)C1=NN(c3ccccc3)C(c3c[nH]c4ccccc34)C1CS2 (stereo unspecified)	47.8	41.1	27.8	61.9	150	inactive	Active		
Clc1cc2c(cc1Cl)C1=NN(c3ccccc3)C(c3c[nH]c4ccccc34)C1CS2 (stereo unspecified)	72.8	27.4	27.1	> 120	164	inactive	Active	Active	
Cc1cccc2c1SCC1C2=NN(c2ccccc2)C1c1c[nH]c2ccccc12 (stereo unspecified)	38	37	28	57.3	189	inactive	Active		
Fc1ccc2c(c1)C1=NN(c3ccccc3)C(c3c[nH]c4ccccc34)C1CS2 (stereo unspecified)	37.8	50	39.3	50.2	175	inactive	Active	Active	
COc1ccc2c(c1)C1=NN(c3ccccc3)C(c3c[nH]c4ccccc34)C1CS2 (stereo unspecified)	> 120	> 120	36.4	> 120	120	inactive	Active		
Cn1cc(C2C3CSc4ccc(Cl)cc4C3=NN2c2ccccc2)c2ccccc21 (stereo unspecified)	51.1	48.7	33.1	36.2	262	inactive			
Clc1ccc2c(c1)C1=NN(c3ccccc3)C(c3c[nH]c4ccccc34)C1CS2 (stereo unspecified)	26.1	38.2	15.4	42.9	160	inactive	Active	Active	viability at 10 µM (MGC-803 [6]): 69.9%; Activity (MGC-803 [7]): 12.32%; Activity (MGC-803 [8]): 17.02%; Activity (MGC-803 [9]): 0.73%; viability at 20 µM (MGC-803 [10]): 36.9%; Activity (MGC-803 [11]): 8.17%; Activity (MGC-803 [12]): 52.74%; Activity (MGC-803 [13]): 2.18%; Activity (MGC-803 [14]): 38.1%; Activity (MGC-803 [15]): 25.3%; Activity (MGC-803 [16]): 36.6%; Drug uptake [17]: Active
Clc1cc(Cl)c2c(c1)C1=NN(c3ccccc3)C(c3c[nH]c4ccccc34)C1CS2 (stereo unspecified)	25.6	25	20.5	21	105	inactive	Active	Active	inhibition [18]: inactive; inhibition (Homo sapiens): inactive; viability at 10 µM (MGC-803 [6]): 89.6%; Activity (MGC-803 [7]): 4.92%; Activity (MGC-803 [8]): 4.99%; Activity (MGC-803 [9]): 0.5%; viability at 20 µM (MGC-803 [10]): 49.2%; Activity (MGC-803 [11]): 12.17%; Activity (MGC-803 [12]): 36.06%; Activity (MGC-803 [13]): 2.54%; Activity (MGC-803 [14]): 49.7%; Activity (MGC-803 [15]): 25.4%; Activity (MGC-803 [16]): 24.9%; Drug uptake [17]: Active
Clc1ccc2c(c1)C1=NN(c3ccccc3)C(c3c[nH]c4ccc(Br)cc34)C1CS2 (stereo unspecified)	37.1	35.1	29.3	32.1	154	inactive			
